US8497278B2, “Imidazo[1,2-a]pyridine compounds” (priority 2008, dated 2013)

Experiments:
[1] = molecular target: T1, α1 subtype containing GABA-A receptors (Homo sapiens, UniProt P14867+P18507); assay: Two-electrode voltage clamp electrophysiology in Xenopus oocytes, potentiation of GABA EC20 response, α1; format: cell-based; conditions: 100 nM compound; for activation at 0.1 µM: read-out: Percentage of potentiation alpha1
T1 construct: expressed in transfected cells; host or cells: Xenopus laevis oocytes, cRNA injected
Procedure, shortened: (§1)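 Xenopus oocytes expressing human α1, α2, α3 or α5 with β3 and γ2L subunits were voltage-clamped at −80 mV in ND96, pH 7.5. Potentiation of the GABA EC20 (60 μM) response by test compounds at 100 nM was measured, with one compound per oocyte. Oocytes showing low current or poor γ2L incorporation, judged by 1 μM chlordiazepoxide response, were excluded.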

[2] = molecular target: T2, α2 subtype containing GABA-A receptors (Homo sapiens, UniProt P18507+P47869); assay: Two-electrode voltage clamp electrophysiology in Xenopus oocytes, potentiation of GABA EC20 response, α2; format: cell-based; conditions: 100 nM compound; for activation at 0.1 µM: read-out: Percentage of potentiation alpha2
T2 construct: expressed in transfected cells; host or cells: Xenopus laevis oocytes, cRNA injected
Procedure, shortened: as §1

Swiss Webster (CFW) mice = assay: Four Plate Test (FPT); format: in vivo; conditions: mouse, 30 min before test, 2 min session
Text: Four Plate Test (FPT) Protocol: The four plate test (FPT) is an animal model of anxiety in which simple ongoing behavior (exploration of novel surroundings) is suppressed by the delivery of mild electric foot-shock contingent to quadrant crossing (Aron, et al., 1971). Clinically effective classes of anxiolytic compounds such as benzodiazepines, selective serotonin reuptake inhibitors, or 5-HT1A receptor agonists produce a marked anti-punishment effect (an increase in punished crossings), which is thought to indicate anxiolytic activity (Aron, et al., 1971; Bourin, et al., 1992; Hascoet, et al., 2000; Ring, et al., 2006). The four plate apparatus (Bioseb, Chaville France) consists of a cage (18×25×16 cm) floored by four identical rectangular metal plates (8×11 cm) separated from one another by a gap of 4 mm. The plates are connected to a shocker unit that can generate electric foot shocks.
Male Swiss Webster (CFW) mice from Charles River (Wilmington, Mass.) were used for the FPT. Mice were received at 3-weeks of age. Upon receipt, mice were assigned unique identification numbers (tail marked) and were group housed with 4 mice per cage in mouse ventilated racks. All animals remained housed in groups of four during the remainder of the study. All mice were acclimated to the colony room for at least one week prior to testing and were subsequently tested at an average age of 4 weeks of age. During the period of acclimation, mice […] were examined on a regular basis, handled, and weighed to assure adequate healtH, D and suitability. Animals were maintained on a 12/12 light/dark cycle. The room temperature was maintained between 20 and 23° C. with a relative humidity maintained between 30% and 70%. Chow and water were provided ad libitum for the duration of the study. In each test, animals were randomly assigned across treatment groups. Alprazolam (0.3 mg/kg) was used as the positive control. Compounds of the present invention, vehicle (45% hydroxypropyl beta-cyclodextrin) and alprazolam were administered orally to all groups (n=10 mice per group) 30 minutes prior to behavioral testing. Following pretreatment, mice were gently placed in the four plate chamber and allowed to explore the enclosure for 18 seconds. After the exploration period, every time the mouse crossed from one plate to another, the experimenter, blind to the dosing conditions, administered a mild electric foot-shock, and referred to as a punished crossing. The intensity and duration of the foot-shock were 0.5 mA for 0.5 seconds. The number of punished crossings was recorded during the 2 min test session. The plates were thoroughly cleaned with 70% ethanol immediately after each mouse. All data were analyzed using an analysis of variance (ANOVA) followed by Fisher's PLSD post hoc test. An effect was considered significance if p<0.05. Statistical outliers above or below 2 standard deviations from the mean in any of the […] were removed from the final analysis.

T1 sequence (P14867 28-456): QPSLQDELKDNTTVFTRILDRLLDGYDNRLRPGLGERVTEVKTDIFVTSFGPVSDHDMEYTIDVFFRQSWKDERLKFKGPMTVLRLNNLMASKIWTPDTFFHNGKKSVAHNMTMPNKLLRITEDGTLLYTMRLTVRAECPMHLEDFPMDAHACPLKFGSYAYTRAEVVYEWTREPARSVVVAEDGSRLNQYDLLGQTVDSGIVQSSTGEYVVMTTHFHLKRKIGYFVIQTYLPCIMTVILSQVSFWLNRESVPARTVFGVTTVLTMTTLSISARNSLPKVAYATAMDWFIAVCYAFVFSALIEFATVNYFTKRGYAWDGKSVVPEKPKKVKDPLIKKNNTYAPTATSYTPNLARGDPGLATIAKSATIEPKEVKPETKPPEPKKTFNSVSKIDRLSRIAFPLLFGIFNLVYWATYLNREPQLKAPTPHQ
T1 sequence (P28472 26-473 partner): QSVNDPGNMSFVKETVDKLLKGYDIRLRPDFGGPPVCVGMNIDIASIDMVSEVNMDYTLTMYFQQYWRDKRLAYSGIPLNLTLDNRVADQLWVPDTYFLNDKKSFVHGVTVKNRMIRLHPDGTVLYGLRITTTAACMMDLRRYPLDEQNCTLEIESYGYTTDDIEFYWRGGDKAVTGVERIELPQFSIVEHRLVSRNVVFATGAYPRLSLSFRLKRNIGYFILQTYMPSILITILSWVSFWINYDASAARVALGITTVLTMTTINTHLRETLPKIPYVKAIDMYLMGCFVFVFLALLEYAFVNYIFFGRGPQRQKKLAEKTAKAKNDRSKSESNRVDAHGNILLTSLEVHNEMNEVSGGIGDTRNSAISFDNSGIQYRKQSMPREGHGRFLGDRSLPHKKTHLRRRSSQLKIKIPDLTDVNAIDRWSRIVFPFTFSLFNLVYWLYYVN
T1 sequence (P18507 40-475): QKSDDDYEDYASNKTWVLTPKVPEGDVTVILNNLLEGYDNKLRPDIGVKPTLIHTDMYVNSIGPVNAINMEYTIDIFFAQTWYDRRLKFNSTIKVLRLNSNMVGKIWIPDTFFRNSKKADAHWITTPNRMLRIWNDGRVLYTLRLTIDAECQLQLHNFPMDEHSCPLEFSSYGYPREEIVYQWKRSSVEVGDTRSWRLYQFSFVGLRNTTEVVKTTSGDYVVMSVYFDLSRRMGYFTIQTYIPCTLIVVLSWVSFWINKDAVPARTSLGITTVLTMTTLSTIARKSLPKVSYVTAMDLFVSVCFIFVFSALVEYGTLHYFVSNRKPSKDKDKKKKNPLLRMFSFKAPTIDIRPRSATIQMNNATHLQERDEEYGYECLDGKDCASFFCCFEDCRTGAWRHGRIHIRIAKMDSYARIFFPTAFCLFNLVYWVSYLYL
T2 sequence (P47869 29-451): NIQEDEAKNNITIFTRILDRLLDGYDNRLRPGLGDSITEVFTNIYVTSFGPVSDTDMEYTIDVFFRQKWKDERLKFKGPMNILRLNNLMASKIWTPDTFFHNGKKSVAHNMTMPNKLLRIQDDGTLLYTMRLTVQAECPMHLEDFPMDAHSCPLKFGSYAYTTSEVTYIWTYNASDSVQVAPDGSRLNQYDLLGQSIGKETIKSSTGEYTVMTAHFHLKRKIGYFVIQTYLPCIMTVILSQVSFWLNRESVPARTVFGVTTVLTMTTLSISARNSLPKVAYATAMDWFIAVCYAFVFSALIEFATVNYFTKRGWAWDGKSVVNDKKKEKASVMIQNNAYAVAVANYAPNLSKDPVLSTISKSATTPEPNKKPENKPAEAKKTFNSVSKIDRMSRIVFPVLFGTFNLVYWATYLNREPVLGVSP
T2 sequence (P28472 26-473 partner): as the sequence (P28472 26-473 partner) above
T2 sequence (P18507 40-475): as the sequence (P18507 40-475) above

Compound | activation at 0.1 µM [1] [%] | activation at 0.1 µM [2] [%] | Number of Punished Crossings Mean ± S.E.M. (Swiss Webster (CFW) mice; 3 mg/kg PO) | Number of Punished Crossings Mean ± S.E.M. (Swiss Webster (CFW) mice; 10 mg/kg PO) | Number of Punished Crossings Mean ± S.E.M. (Swiss Webster (CFW) mice; 30 mg/kg PO) | Percentage of potentiation alpha1 [1] | Percentage of potentiation alpha2 [2]
Cn1ncnc1Cc1c(-c2ccc(F)cc2)nc2ccc(F)cn12 [Compound 200, 6-fluoro-2-(4-fluorophenyl)-3-((1-methyl-1H-1,2,4-triazol-5-yl)methyl)imidazo[1,2-a]pyridine] | 10 to 50 | ≥ 50 | 7.2 ± 0.52 | 8.6 ± 0.43 | 7.5 ± 0.39 | – | –
CNC(=O)c1nccn1Cc1c(-c2ccc(Cl)cc2)nc2ccccn12 [Compound 77, 1-((2-(4-chlorophenyl)H-imidazo[1,2-a]pyridin-3-yl)methyl)-N-methyl-1H-imidazole-2-carboxamide] | – | – | 4.3 ± 0.26 | 4.6 ± 0.31 | 5.0 ± 0.37 | 0 (percentage of potentiation is between about 10% to about −10%) | + (percentage of potentiation is greater than or equal to 10% but less than 50% in the presence of 100 nM of the compound)
Clc1ccc(-c2nc3cccnn3c2Cn2cncn2)cc1 [Compound 32, 3-((1H-1,2,4-triazol-1-yl)methyl)-2-(4-chlorophenyl)imidazo[1,2-b]pyridazine] | 10 to 50 | 10 to 50 | 6.6 ± 0.72 | 6.6 ± 0.67 | 5.7 ± 0.94 | – | –
Clc1ccc(-c2nc3ccccn3c2Cc2ncn[nH]2)cc1 [Compound 211, 3-((1H-1,2,4-triazol-5-yl)methyl)-2-(4-chlorophenyl)imidazo[1,2-a]pyridine] | 10 to 50 | ≥ 50 | 7.8 ± 0.59 | 8.6 ± 0.85 | 8.9 ± 0.57 | – | –
NC(=O)c1ncn(Cc2c(-c3ccc(Cl)cc3)nc3ccccn23)n1 [Compound 72, 1-((2-(4-chlorophenyl)imidazo[1,2-a]pyridin-3-yl)methyl)-1H-1,2,4-triazole-3-carboxamide] | 10 to 50 | ≥ 50 | 5.8 ± 0.63 | 5.2 ± 0.47 | 4.8 ± 0.36 | – | –
Cc1ccn(Cc2c(-c3ccc(Cl)cc3)nc3ccccn23)c(=O)n1 [Compound 105, 1-((2-(4-chlorophenyl)imidazo[1,2-a]pyridin-3-yl)methyl)-4-methylpyrimidin-2(1H)-one] | 10 to 50 | 10 to 50 | 6.7 ± 0.34 | 5.5 ± 0.60 | 5.6 ± 0.52 | – | –
